Results as given in patent US5639734A, “Disaccharide inflammation inhibitors and uses thereof” (priority 1994, dated 1997).
“Also recorded” adds a separate entry of the source. Like-named read-outs stand apart in the source and are kept apart here. One block for each compound: values may come before it.

Assays:
[1] = test system: pgsA-745 cells (xylosyltransferase deficient Chinese hamster ovary cells); test: Priming of [35S]glycosaminoglycan chains in xylosyltransferase-deficient CHO mutant pgsA-745 cells; format: cell-based; conditions: FIG. 3, 5 hours at 37° C.; for Priming of glycosaminoglycan chains (in words): up to 500 μM; for minimal effective concentration: Cricetulus griseus, read-out: Concentration at which glycosaminoglycan chains are primed
Experimental: Various compounds at the indicated concentrations were provided to confluent Chinese hamster ovary cells in a 96 well plate. Glycosaminoglycan synthesis was measured by autoradiography of [^35 S]-glycosaminoglycan collected on a postively charged nylon membrane. 1: Xylβ-0-2-naphthol; 2: Xylβ1→6Gal-0-2-naphthol; 3: Xylβ1→6Gal(Me)-0-2-naphthol; 4: Xylβ1→6Gal(Me)2 -0-2-naphthol; 5: Xylβ1→6Gal(Me)3 -0-2-naphthol; 6: Xyl(Ac)3 β-0-2-naphthol; 7:Xyl(Ac)3 β1→6Gal(Ac)3 -0-2-naphthol.
Priming of glycosaminoglycan chains was measured in pgsA-745 cells deficient in xylosyltransfersase. The cells were grown to confluence in 96-well microtiter plates (Falcon). Fresh medium (0.2 ml) containing 50 μCi/ml of H2^35 SO4 (25-40 Ci/mg) and the test compounds were added to the wells. The top row of wells contained […] of glycoside and each subsequent row contained a serial dilution (1:3^n, v/v). Cells were incubated for 5 hours at 37° C. and solubilized by adding 20 μl of 0.5M NaOH. The individual wells were adjusted to 0.2% (w/v) Zwittergent 3-12, 25 μg/ml chondroitin sulfate, 0.2M acetic acid and 10 mM Na2 SO4. The samples were transferred to a GeneScreen Plus membrane (Dupont-NEN) placed on top of a piece of 1Chr paper on a vacuum Minifold (Schleicher & Schuell). A wash solution of 0.2% (w/v) Zwittergent 3-12, 0.2M acetic acid and 10 mM Na2 SO4 (0.5 ml) was passed through each well. The membranes were removed from the Minifold, soaked for 5 minutes in 20 ml of wash solution, air-dried and exposed to RX X-ray film for 10-18 hours.
Therefore, uptake of the disaccharide was measured indirectly by the determining the incorporation of ^35 SO4 into glycosaminoglycan chains. To distinguish glycosaminoglycans produced on the glycoside from those made on endogenous proteoglycans, a Chinese hamster ovary cell mutant deficient in xylosyltransferase was made. […] [^35 S]glycosaminoglycan synthesis was measured by incubating mutant cells in a 96 well plate with glycoside derivatives at different doses. The cells and spent media were then transferred to a positively charged nylon membrane to detect newly made chains by autoradiography.

[2] = test system: Chinese hamster ovary cells; test: Uptake of glycosides by Chinese hamster ovary cells, fluorescence assay; conditions: for Uptake (in words): CHO cells, 37° C., FIG. 1 and 2 (100 μM in FIG. 2); for Uptake: relative to Xylβ-0-2-naphthol 1.0 unit
Experimental: Confluent monolayers of Chinese hamster ovary cells were incubated with the indicated concentrations of Xylβ-0-2-naphthol at 37° C. for 30 minutes. The amount of glycoside taken up was determined by fluorescence assay.
The various glycosides were added (100 μM) to confluent Chinese hamster ovary cell monolayers and at the times indicated, the amount of glycoside taken up was quantitated by fluorescence assay. Filled circles: Xylβ-0-2-naphthol; filled square: Galβ-0-2-naphthol; unfilled triangle: Galβ1→4Xylβ-0-2-naphthol; filled triangle: Galβ1 →3Galβ0-2-naphthol.
Compounds were dissolved in DMSO and added to growth medium such that the final concentration of vehicle was 0.5% (v/v). Confluent cells were incubated with supplemented growth medium at 37° C. for various times. The cultures were placed on ice, the medium was aspirated and the cells were washed three times with cold PBS containing 1 mg/ml of bovine serum albumin. Cells were solubilized in a small volume of 0.1M NaOH and the extracts were neutralized with one mole equivalent of acetic acid. After centrifuging the samples, the supernatants were applied to Sep-Pak Plus C18 cartridges (Waters Associates) and washed with water (10 ml) and 20% (v/v) methanol in water (5 ml). Bound material was eluted with 5 ml of 40% (v/v) methanol in water and concentrated to dryness. The residue was dissolved in methanol and its fluoresence was measured (SLM-Aminco Instruments). The excitation and emission wavelengths for 2-naphthol derivatives were 293 nm and 395 nm, respectively. Phenanthrol derivatives were excited at 310 nm and the emission was measured at 365 nm.
Animal cells take up β-D-xylosides and prime glycosaminoglycan chains with great efficiency. For priming to occur, the glycoside must pass though the plasma membrane and enter the Golgi where the glycosyltransferases reside. […] Xylβ-0-2-naphthol has three hydroxyl groups, whereas Gal-0-2-naphtholhas four.

[3] = test system: HL-60 adhesion to activated human umbilical vein endothelial cells (HUVEC); test: Adhesion of HL-60 cells to TNF-α-activated HUVEC; format: cell-based; conditions: for Inhibition of HL-60 / leukocyte adhesion (in words): TNF-α-treated HUVEC, concentration not given
F9 cells [4] = test: Priming of [3H]GlcN-labeled oligosaccharides in F9 cells; format: cell-based, mouse; conditions: for Priming of oligosaccharides (in words) / Priming: F9 cells; for Priming of oligosaccharides (in words): [3H]GlcN; for Priming: Table I, per μg cell protein, control value (30) subtracted; for Fraction of labeled oligosaccharides that were charged (bound to QAE-Sephadex): anion-exchange chromatography
sLe^x on HL-60 cells = test: FACS of sLe^x expression on HL-60 cells with mAb CSLEX-1; format: cell-based, human; conditions: for Inhibition of sialyl Lewis X formation in HL-60 cells (in words): concentration not given
F9 cells [5] = test: Uptake of disaccharides by F9 cells, fluorescence assay; format: in vitro ADME, mouse; conditions: for Uptake: Table I, control value without glycoside (1.0) subtracted
[6] = test system: basic fibroblast growth factor; conditions: background; cited from earlier work
[7] = listed as acetylated Galβ1→4GlcNAcβ-0-2-naphthalenemethanol
[8] = listed as peracetylated Galβ1→4GlcNAcβ-0-2-naphthalenemethanol

Compound: CC(=O)O[C@@H]1[C@@H](OC(C)=O)[C@H](Oc2ccc3ccccc3c2)OC[C@H]1OC(C)=O [Xyl(Ac)3 β-0-2-naphthol]
- Priming of glycosaminoglycan chains (in words) [1]: somewhat less effectively than the non-acetylated compound

Compound: O[C@H]1[C@@H](O)[C@@H](CO[C@@H]2OC[C@@H](O)[C@H](O)[C@H]2O)O[C@@H](Oc2ccc3ccccc3c2)[C@@H]1O [Xylβ1→6Galβ-0-2-naphthol]
- Priming of glycosaminoglycan chains (in words) [1]: did not prime [^35 S]-glycosaminoglycans even at 500 μM

Compound: CO[C@H]1[C@@H](OC)[C@@H](CO[C@@H]2OC[C@@H](O)[C@H](O)[C@H]2O)O[C@@H](Oc2ccc3ccccc3c2)[C@@H]1OC [Xylβ1→6Gal(Me)3-0-2-naphthol]
- minimal effective concentration [1]: < 1 µM
- Priming of glycosaminoglycan chains (in words) [1]: nearly as well as Xylβ-0-2-napthol

- Uptake [2]: 0.3 unit of fluorescence
Compound: OC[C@H]1O[C@@H](Oc2ccc3ccccc3c2)[C@H](O)[C@@H](O)[C@H]1O [Galβ-0-2-naphthol]
- Uptake (in words) [2]: slow and reached a lower steady-state level

Compound: CC(=O)N[C@H]1[C@H](O[C@H]2[C@@H](OC(C)=O)[C@@H](COC(C)=O)O[C@@H](OCc3ccc4ccccc4c3)[C@@H]2OC(C)=O)O[C@H](COC(C)=O)[C@@H](OC(C)=O)[C@@H]1OC(C)=O [AcGlcNAcGal-NM, Peracetylated GlcNAcβ1-3Galβ-0-naphthalenemethanol]
- Inhibition of HL-60 / leukocyte adhesion (in words) [3]: inhibits cell adhesion more efficiently than acetylated Galβ1→4GlcNAcβ-X-naphthalenemethanol
- Fold [3H]GlcN-labeled oligosaccharides primed compared with AcLacNAc-NM (F9 cells [4]; >25 μM): ~10 -fold
- Priming of oligosaccharides (in words) (F9 cells [4]): much more active than AcLacNAc-NM at low dose
- Priming of oligosaccharides (in words) (F9 cells [4]; listed as Acetylated GlcNAcβ1→3Galβ-O-naphthalenemethanol): primes oligosaccharides and inhibits cell adhesion more efficiently than acetylated Galβ1→4GlcNAcβ-X-naphthalenemethanol
- Priming of oligosaccharides (in words) (F9 cells [4]; listed as acetylated GlcNAcβ1→3Galβ-O-naphthalenemethanol): prime oligosaccharides in cultured cells
- Inhibition of sialyl Lewis X formation in HL-60 cells (in words) (sLe^x on HL-60 cells): inhibit the formation of sialyl Lewis X

- Uptake (in words) [2]: not taken up al all
Compound: OC[C@H]1O[C@@H](O[C@@H]2CO[C@@H](Oc3ccc4ccccc4c3)[C@H](O)[C@H]2O)[C@H](O)[C@@H](O)[C@H]1O [Galβ1→4Xylβ-0-2-naphthol]

Compound: CC(=O)O[C@H]1[C@@H](OC(C)=O)[C@@H](CO[C@@H]2OC[C@@H](OC(C)=O)[C@H](OC(C)=O)[C@H]2OC(C)=O)O[C@@H](Oc2ccc3ccccc3c2)[C@@H]1OC(C)=O [peracetylated Xylβ1→6Galβ-0-2-naphthol, Xyl(Ac)3 β1→6Gal(Ac)3-0-2-naphthol]
- minimal effective concentration [1]: ~6 µM

Compound: OC[C@H]1O[C@@H](O[C@H]2[C@@H](O)[C@@H](CO)O[C@@H](Oc3cc4ccccc4c4ccccc34)[C@@H]2O)[C@H](O)[C@@H](O)[C@H]1O [Galβ1→3Galβ-0-9-phenanthrol]
- Uptake [2]: less than 0.1 unit of fluorescence

Compound: OC[C@H]1O[C@@H](Oc2cc3ccccc3c3ccccc23)[C@H](O)[C@@H](O)[C@H]1O [Galβ-0-9-phenanthrol]
- Uptake [2]: 4.2 unit of fluorescence

Compound: CC(=O)N[C@H]1[C@H](OCc2ccc3ccccc3c2)O[C@H](COC(C)=O)[C@@H](O[C@@H]2O[C@H](COC(C)=O)[C@H](OC(C)=O)[C@H](OC(C)=O)[C@H]2OC(C)=O)[C@@H]1OC(C)=O [AcLacNAc-NM, acetylated Galβ1→4GlcNAcβ-O-naphthalenemethanol]
- Fold reduction in attached HL-60 cells ([3]; 100 μM AcLacNAc-NM, TNF-α HUVEC, static): 8 -fold
- Inhibition of HL-60 / leukocyte adhesion (in words) [3]: reduced adhesion
- Inhibition of HL-60 / leukocyte adhesion (in words) [3, 7]: The decrease in sLe^x expression had a corresponding effect on cell adhesion
- Uptake (in words) (F9 cells [5]): nearly as well as non-acetylated pentosides linked to naphthol
- Uptake (F9 cells [5]): 6.4 Arbitray units
- Uptake (in words) (F9 cells [5]; [8]): nearly as efficient as Xylβ-0-napthol
- Priming of oligosaccharides (in words) (F9 cells [4]): primed oligosaccharides in F9 cells; also recorded: A significant lag phase preceded priming of oligosaccharides
- Priming of oligosaccharides (in words) (F9 cells [4]; listed as acetylated Galβ1→4GlcNAcβ-O-naphthalenemethanol): prime oligosaccharides in cultured cells
- Priming of oligosaccharides (in words) (F9 cells [4]; [8]): A large amount of labeled material was generated
- Priming (F9 cells [4]): 250 ^3 H-cpm/μg
- Fraction of labeled oligosaccharides that were charged (bound to QAE-Sephadex) (F9 cells [4]): About 25%
- Fraction of labeled oligosaccharides that were charged (bound to QAE-Sephadex) (F9 cells [4]; [8]): approximately 25%
- sLe^x expression on the cell surface, FACS (in words) (sLe^x on HL-60 cells; 200 μM acetylated sugars, 40 hours / two days, mAb CSLEX-1): the cell population shifted to a lower mean fluorescence
- Inhibition of sialyl Lewis X formation in HL-60 cells (in words) (sLe^x on HL-60 cells): inhibit the formation of sialyl Lewis X
- Inhibition of sialyl Lewis X formation in HL-60 cells (in words) (sLe^x on HL-60 cells; [7]): inhibition of sLe^x expression on the surface of HL-60 cells

Compound: CC(=O)N[C@H]1[C@H](OCc2ccc3ccccc3c2)O[C@H](CO)[C@@H](O[C@@H]2O[C@H](CO)[C@H](O)[C@H](O)[C@H]2O)[C@@H]1O [Galβ1→4GlcNAcβ-0-naphthalenemethanol, Galβ1→4GlcNAcβ-0-2-naphthalenemethanol]
- Uptake (in words) (F9 cells [5]): very limited
- Uptake (F9 cells [5]): 0.5 Arbitray units
- Priming of oligosaccharides (in words) (F9 cells [4]): increases with time and does not saturate for several hours
- Priming (F9 cells [4]): 20 ^3 H-cpm/μg

Compound: Xylβ1→6Gal(Me)-0-2-naphthol
- Concentration of maximum effect on 35S-glycosaminoglycan synthesis [1]: approximately 60 μM
- Priming of glycosaminoglycan chains (in words) [1]: Higher concentrations were less effective

Compound: Xylβ1→6Gal(Me)2 -0-2-naphthol
- Concentration at which glycosaminoglycan chains are primed [1]: 2 to 6 µM

Compound: O[C@@H]1[C@@H](O)[C@@H](Oc2ccc3ccccc3c2)OC[C@@H]1O [L-Araβ-0-2-naphthol, L-Araα-0-2-naphthol]
- Uptake (in words) [2]: diffuse more readily than hexosides
- Uptake [2]: 0.8 unit of fluorescence

- Uptake (in words) [2]: not taken up al all
Compound: OC[C@H]1O[C@@H](O[C@H]2[C@@H](O)[C@@H](CO)O[C@@H](Oc3ccc4ccccc4c3)[C@@H]2O)[C@H](O)[C@@H](O)[C@H]1O [Galβ1→3Galβ-0-2-naphthol]

Compound: O[C@@H]1[C@@H](O)[C@H](Oc2ccc3ccccc3c2)OC[C@H]1O [Xylβ-0-2-naphthol]
- Binding of primed heparan sulfate chains to basic fibroblast growth factor (in words) [6]: will bind to basic fibroblast growth factor
- Priming of glycosaminoglycan chains (in words) [1]: primed chains efficiently
- Uptake (in words) [2]: diffuse more readily than hexosides; also recorded: occurs by diffusion; also recorded: depended on concentration and did not saturate
- Time for uptake to reach a plateau ([2]; FIG. 2, 100 μM): less than one minute
- Uptake [2]: 1.0 unit of fluorescence
- Uptake (F9 cells [5]): 9.0 Arbitray units
